Read-outs that look alike come from different tables or passages of the source.

The target in the test is T1, horseradish peroxidase (HRP) tagged delF508-CFTR (Homo sapiens, UniProt P13569, DEL508-508).
T1 construct: expressed in transfected cells
As to the kind of experiment: Measurement of delF508-CFTR-HRP surface expression in CFBE41o- cells.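 As to DelF508-CFTR-HRP Amax %: percent efficacy relative to reference corrector lumacaftor.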 The class given is cell-based. The note with it: for Emax: read-out: DelF508-CFTR-HRP Amax %. A digest of the protocol: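 Surface-trafficked delF508-CFTR detected via extracellular HRP tag, read as luminescence from a membrane-impermeant substrate in CFBE41o- cells. Cells pre-induced 48h with 500 ng/mL doxycycline, then exposed 24h at 37° C to a 10-point, 3-fold dilution series from 10 μM (DMSO ≤0.5%). Triplicate dose-responses fitted logistically for EC50 after per-plate normalization; fold change versus reference compound.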

Setting [1] is: delF508-CFTR-HRP surface expression, CFBE41o- cells.
Where [2] appears, read: delF508-CFTR-HRP surface expression, CFBE41o- cells, read-out: DelF508-CFTR-HRP EC50.

T1 sequence (P13569 with tags, fused parts or gaps DEL508-508): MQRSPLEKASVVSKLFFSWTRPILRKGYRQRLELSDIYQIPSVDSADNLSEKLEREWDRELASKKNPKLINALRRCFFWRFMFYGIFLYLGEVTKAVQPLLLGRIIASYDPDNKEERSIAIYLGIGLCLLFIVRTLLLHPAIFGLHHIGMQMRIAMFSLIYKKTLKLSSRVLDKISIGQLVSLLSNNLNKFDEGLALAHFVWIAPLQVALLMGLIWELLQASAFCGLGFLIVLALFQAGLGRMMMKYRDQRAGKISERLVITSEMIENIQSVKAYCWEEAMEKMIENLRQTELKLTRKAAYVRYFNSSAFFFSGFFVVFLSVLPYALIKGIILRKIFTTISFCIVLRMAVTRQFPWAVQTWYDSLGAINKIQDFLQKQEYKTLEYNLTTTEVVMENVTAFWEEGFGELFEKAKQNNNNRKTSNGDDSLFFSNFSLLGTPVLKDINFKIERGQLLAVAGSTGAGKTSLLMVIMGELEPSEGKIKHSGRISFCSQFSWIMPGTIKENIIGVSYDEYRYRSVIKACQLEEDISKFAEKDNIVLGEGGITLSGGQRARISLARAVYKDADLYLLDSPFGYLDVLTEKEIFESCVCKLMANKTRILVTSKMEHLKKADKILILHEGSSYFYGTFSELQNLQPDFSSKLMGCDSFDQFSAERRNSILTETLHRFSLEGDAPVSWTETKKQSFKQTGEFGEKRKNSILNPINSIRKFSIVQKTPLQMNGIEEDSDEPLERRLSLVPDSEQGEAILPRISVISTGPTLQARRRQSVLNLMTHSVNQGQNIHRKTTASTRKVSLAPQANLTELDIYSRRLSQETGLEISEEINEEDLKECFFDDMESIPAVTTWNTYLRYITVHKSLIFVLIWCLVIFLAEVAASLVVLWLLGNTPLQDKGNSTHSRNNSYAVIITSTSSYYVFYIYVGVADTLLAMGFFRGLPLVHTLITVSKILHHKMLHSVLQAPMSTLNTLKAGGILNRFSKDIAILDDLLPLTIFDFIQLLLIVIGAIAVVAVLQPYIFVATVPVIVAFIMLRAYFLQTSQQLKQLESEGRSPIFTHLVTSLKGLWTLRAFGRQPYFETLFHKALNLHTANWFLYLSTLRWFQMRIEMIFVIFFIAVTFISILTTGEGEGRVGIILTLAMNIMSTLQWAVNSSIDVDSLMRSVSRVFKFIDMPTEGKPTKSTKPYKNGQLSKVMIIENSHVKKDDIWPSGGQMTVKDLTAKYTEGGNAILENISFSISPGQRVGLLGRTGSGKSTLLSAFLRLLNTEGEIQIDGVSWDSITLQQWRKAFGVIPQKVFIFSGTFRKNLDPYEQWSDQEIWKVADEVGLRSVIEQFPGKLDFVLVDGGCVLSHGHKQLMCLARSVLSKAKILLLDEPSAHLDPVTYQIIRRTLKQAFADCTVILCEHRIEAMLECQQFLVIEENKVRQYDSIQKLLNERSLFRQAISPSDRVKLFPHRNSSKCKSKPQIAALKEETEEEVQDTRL

By EC50 is commonly meant the concentration that produces a half-maximal response. Take `Cc1ccccc1-c1nc(NS(=O)(=O)c2cccc(N3CCC34CN(C(=O)OC(C)(C)C)C4)n2)ccc1C(F)(F)F` [Example 301, tert-butyl 1-(6-(N-(6-(o-tolyl)-5-(trifluoromethyl)pyridin-2-yl)sulfamoyl)pyridin-2-yl)-1,6-diazaspiro[3.3]heptane-6-carboxylate]: the Emax under setting [1] stood at 546%. Besides, the EC50 under setting [2] came to 0.67 µM.

On to `Cc1ccc(F)cc1-c1nc(NS(=O)(=O)c2cccc(N3CCC34CNC4)n2)ccc1Cl` [Example 310, N-(5-chloro-6-(5-fluoro-2-methylphenyl)pyridin-2-yl)-6-(1,6-diazaspiro[3.3]heptan-1-yl)pyridine-2-sulfonamide], for which the Emax under setting [1] was determined as 137%. Under setting [2], the EC50 was determined as 4.98 µM.

Regarding `Cc1ccccc1-c1nc(NS(=O)(=O)c2cccc(N3CCC34CNC4)n2)ccc1C(F)(F)F` [Example 313, 6-(1,6-diazaspiro[3.3]heptan-1-yl)-N-(6-(o-tolyl)-5-(trifluoromethyl)pyridin-2-yl)pyridine-2-sulfonamide], the Emax under setting [1] stood at 128%. Besides, the EC50 under setting [2] came to 4.57 µM.

For the compound `Cc1ccc(C#N)cc1-c1nc(NS(=O)(=O)c2ccnc(N3CC(C)(O)C3)c2)ccc1C(F)(F)F` [Example 317, N-(6-(5-cyano-2-methylphenyl)-5-(trifluoromethyl)pyridin-2-yl)-2-(3-hydroxy-3-methylazetidin-1-yl)pyridine-4-sulfonamide], the Emax under setting [1] worked out at 185%. In addition, the EC50 under setting [2] worked out at 4.67 µM.

For the compound `Cc1ccc(F)cc1-c1nc(NS(=O)(=O)c2ccnc(N3CCNCC3)c2)ccc1Cl` [Example 327, N-(5-chloro-6-(5-fluoro-2-methylphenyl)pyridin-2-yl)-2-(piperazin-1-yl)pyridine-4-sulfonamide], under setting [1], the Emax worked out at 92.5%. Under setting [2], the EC50 worked out at 4.26 µM.

Consider `CCOc1ccccc1-c1nc(NS(=O)(=O)c2cccc(N3CCC[C@@](C)(C(=O)O)C3)n2)ccc1C(F)(F)F` [Example 328, (R)-1-(6-(N-(6-(2-ethoxyphenyl)-5-(trifluoromethyl)pyridin-2-yl)sulfamoyl)pyridin-2-yl)-3-methylpiperidine-3-carboxylic Acid], for which the EC50 under setting [2] was 1.79 µM.

With `CCCOc1ccccc1-c1nc(NS(=O)(=O)c2cccc(N3CCC[C@@](C)(C(=O)O)C3)n2)ccc1C(F)(F)F` [Example 329, (R)-3-methyl-1-(6-(N-(6-(2-propoxyphenyl)-5-(trifluoromethyl)pyridin-2-yl)sulfamoyl)pyridin-2-yl)piperidine-3-carboxylic Acid], the EC50 under setting [2] was 0.93 µM.

Regarding `Cc1ccccc1-c1nc(NS(=O)(=O)c2cccc(N3CC(C(=O)O)C3)n2)ccc1C(F)(F)F` [Example 330, 1-(6-(N-(6-(o-tolyl)-5-(trifluoromethyl)pyridin-2-yl)sulfamoyl)pyridin-2-yl)azetidine-3-carboxylic Acid], the Emax under setting [1] came to 9.1%. Besides, under setting [2], the EC50 amounted to 2.3 µM.

As to `Cc1ccccc1-c1nc(NS(=O)(=O)c2cccc(N3CCN(C(=O)OC(C)(C)C)[C@H](C(=O)O)C3)n2)ccc1C(F)(F)F` [Example 334, (2S)-1-[(tert-butoxy)carbonyl]-4-(6-{[6-(2-methylphenyl)-5-(trifluoromethyl)pyridin-2-yl]sulfamoyl}pyridin-2-yl)piperazine-2-carboxylic Acid], under setting [1], the Emax was 164%. For the same compound, the EC50 under setting [2] was found to be 2.47 µM.

Turning to `Cc1ccccc1-c1nc(NS(=O)(=O)c2cccc(N3CCN[C@H](C(=O)O)C3)n2)ccc1C(F)(F)F` [Example 335, (2S)-4-(6-{[6-(2-methylphenyl)-5-(trifluoromethyl)pyridin-2-yl]sulfamoyl}pyridin-2-yl)piperazine-2-carboxylic Acid], the Emax under setting [1] stood at 71.3%. Further, under setting [2], the EC50 amounted to 3.14 µM.

Consider `Cc1ccccc1-c1nc(NS(=O)(=O)c2cccc(N3CCC(C)(C(=O)O)C3)n2)ccc1C(F)(F)F` (stereo not drawn) [Example 336, 3-methyl-1-(6-{[6-(2-methylphenyl)-5-(trifluoromethyl)pyridin-2-yl]sulfamoyl}pyridin-2-yl)pyrrolidine-3-carboxylic Acid], for which, under setting [1], the Emax worked out at 266%. Moreover, under setting [2], the EC50 amounted to 1.76 µM.

Regarding `Cc1ccccc1-c1nc(NS(=O)(=O)c2cccc(N3CCN(C(=O)OC(C)(C)C)[C@@H](C(=O)O)C3)n2)ccc1C(F)(F)F` [Example 338, (2R)-1-[(tert-butoxy)carbonyl]-4-(6-{[6-(2-methylphenyl)-5-(trifluoromethyl)pyridin-2-yl]sulfamoyl}pyridin-2-yl)piperazine-2-carboxylic Acid], the Emax under setting [1] was determined as 542%. The EC50 under setting [2] was determined as 2.81 µM.

As for `Cc1ccccc1-c1nc(NS(=O)(=O)c2cccc(N3CCO[C@@H](C(=O)O)C3)n2)ccc1C(F)(F)F` [Example 339, (2R)-4-(6-{[6-(2-methylphenyl)-5-(trifluoromethyl)pyridin-2-yl]sulfamoyl}pyridin-2-yl)morpholine-2-carboxylic Acid], the Emax under setting [1] stood at 122%. The EC50 under setting [2] is 2.31 µM.

For the compound `Cc1ccccc1-c1nc(NS(=O)(=O)c2cccc(N3C[C@H]4C[C@H]4[C@H]3C(=O)O)n2)ccc1C(F)(F)F` [Example 340, (1R,2S,5S)-3-(6-{[6-(2-methylphenyl)-5-(trifluoromethyl)pyridin-2-yl]sulfamoyl}pyridin-2-yl)-3-azabicyclo[3.1.0]hexane-2-carboxylic Acid], the Emax under setting [1] was found to be 278%. The EC50 under setting [2] was determined as 2.45 µM.

As for `Cc1ccccc1-c1nc(NS(=O)(=O)c2cccc(N3CCN[C@@H](C(=O)O)C3)n2)ccc1C(F)(F)F` [Example 341, (2R)-4-(6-{[6-(2-methylphenyl)-5-(trifluoromethyl)pyridin-2-yl]sulfamoyl}pyridin-2-yl)piperazine-2-carboxylic Acid], the Emax under setting [1] was 89.2%. Moreover, the EC50 under setting [2] was determined as 3.03 µM.

Take `Cc1ccccc1-c1nc(NS(=O)(=O)c2cccc(N3C4CCC3CC(C(=O)O)C4)n2)ccc1C(F)(F)F` (stereo not drawn) [Example 346, 8-(6-{[6-(2-methylphenyl)-5-(trifluoromethyl)pyridin-2-yl]sulfamoyl}pyridin-2-yl)-8-azabicyclo[3.2.1]octane-3-carboxylic Acid]: a half-maximal effect (EC50) was put at 1.75 µM. In addition, the Emax under setting [1] was determined as 297%.

Consider `Cc1ccccc1-c1nc(NS(=O)(=O)c2cccc(N3CCN(C(=O)OC(C)(C)C)C[C@@H]3C(=O)O)n2)ccc1C(F)(F)F` [Example 347, (2R)-4-[(tert-butoxy)carbonyl]-1-(6-{[6-(2-methylphenyl)-5-(trifluoromethyl)pyridin-2-yl]sulfamoyl}pyridin-2-yl)piperazine-2-carboxylic Acid], for which the Emax under setting [1] stood at 245%. Besides, the EC50 under setting [2] is 1.89 µM.

`Cc1ccccc1-c1nc(NS(=O)(=O)c2cccc(N3CC[C@H](C(=O)O)C3)n2)ccc1C(F)(F)F` [Example 348, (3S)-1-(6-{[6-(2-methylphenyl)-5-(trifluoromethyl)pyridin-2-yl]sulfamoyl}pyridin-2-yl)pyrrolidine-3-carboxylic Acid]: the Emax under setting [1] was 145%. Further, under setting [2], the EC50 is 2.83 µM.

`Cc1ccccc1-c1nc(NS(=O)(=O)c2cccc(N3CC[C@@H](C(=O)O)C3)n2)ccc1C(F)(F)F` [Example 349, (3R)-1-(6-{[6-(2-methylphenyl)-5-(trifluoromethyl)pyridin-2-yl]sulfamoyl}pyridin-2-yl)pyrrolidine-3-carboxylic Acid]: under setting [1], the Emax amounted to 252%. In addition, the EC50 under setting [2] amounted to 1.64 µM.

`Cc1ccccc1-c1nc(NS(=O)(=O)c2cccc(N3CCN(C(=O)OC(C)(C)C)C[C@H]3C(=O)O)n2)ccc1C(F)(F)F` [Example 350, (2S)-4-[(tert-butoxy)carbonyl]-1-(6-{[6-(2-methylphenyl)-5-(trifluoromethyl)pyridin-2-yl]sulfamoyl}pyridin-2-yl)piperazine-2-carboxylic Acid]: the Emax under setting [1] was found to be 232%. Under setting [2], the EC50 turned out to be 1.9 µM.

`Cc1ccccc1-c1nc(NS(=O)(=O)c2cccc(N3CCNC[C@@H]3C(=O)O)n2)ccc1C(F)(F)F` [Example 353, (2R)-1-(6-{[6-(2-methylphenyl)-5-(trifluoromethyl)pyridin-2-yl]sulfamoyl}pyridin-2-yl)piperazine-2-carboxylic Acid]: the Emax under setting [1] turned out to be 118%. For the same compound, the EC50 under setting [2] amounted to 2.8 µM.

Consider `Cc1ccccc1-c1nc(NS(=O)(=O)c2cccc(N3CCNC[C@H]3C(=O)O)n2)ccc1C(F)(F)F` [Example 354, (2S)-1-(6-{[6-(2-methylphenyl)-5-(trifluoromethyl)pyridin-2-yl]sulfamoyl}pyridin-2-yl)piperazine-2-carboxylic Acid], for which the Emax under setting [1] turned out to be 154%. The EC50 under setting [2] was 2.74 µM.

As for `Cc1ccccc1-c1nc(NS(=O)(=O)c2cccc(N[C@H]3C[C@H](C(=O)O)C3)n2)ccc1C(F)(F)F` [Example 355, (1r,3r)-3-((6-(N-(6-(o-tolyl)-5-(trifluoromethyl)pyridin-2-yl)sulfamoyl)pyridin-2-yl)amino)cyclobutanecarboxylic Acid], the Emax under setting [1] stood at 140%. Besides, under setting [2], the EC50 came to 3.69 µM.

Consider `CC1(C(=O)O)CCN(c2cccc(S(=O)(=O)Nc3ccc(C(F)(F)F)c(-c4ccccc4C4CCC4)n3)n2)CC1` [Example 363, 1-(6-(N-(6-(2-cyclobutylphenyl)-5-(trifluoromethyl)pyridin-2-yl)sulfamoyl)pyridin-2-yl)-4-methylpiperidine-4-carboxylic Acid], for which the Emax under setting [1] was 616%. The EC50 under setting [2] is 0.705 µM.

For `Cc1ccccc1-c1nc(NS(=O)(=O)c2cccc(N[C@H]3CC[C@H](C(=O)O)CC3)n2)ccc1C(F)(F)F` [Example 364, (1r,4r)-4-((6-(N-(6-(o-tolyl)-5-(trifluoromethyl)pyridin-2-yl)sulfamoyl)pyridin-2-yl)amino)cyclohexanecarboxylic Acid], the Emax under setting [1] turned out to be 231%. Also, under setting [2], the EC50 came out at 1.59 µM.
